SMILES strings stand for the structures.

The subject of the experiment is human dermal fibroblasts. Kind of experiment: Human dermal fibroblast cells (hDFC) proliferation, cell viability assay (CellTiter-Glo, manual cell counting). Further: test concentration or dose not given here. Format: cell-based. As to conditions: hDFCs proliferation; control is DMSO.
On to `CCOC(OCC)OCC` [VII-6, diethoxymethoxyethane], for which the “Activity (Percent Increase Proliferation of hFDPCs (%))” value is recorded as “D (increased proliferation of hFDPCs equals to or larger than 8%)”.

For `NN1CCNCC1` [VII-2, piperazin-1-amine], the “Activity (Percent Increase Proliferation of hFDPCs (%))” value is given as “D (increased proliferation of hFDPCs equals to or larger than 8%)”.

For the molecule `NC(=O)C1CCCc2ccccc2N1` (stereo not shown) [VII-18, 2,3,4,5-tetrahydro-1H-1-benzazepine-2-carboxamide], the “Activity (Percent Increase Proliferation of hFDPCs (%))” value is on record as “D (increased proliferation of hFDPCs equals to or larger than 8%)”.

Take `O[C@H]1CCNC[C@]12CCCNC2` [VII-7, (5S,6R)-2,8-diazaspiro[5.5]undecan-5-ol]: the “Activity (Percent Increase Proliferation of hFDPCs (%))” value is recorded as “D (increased proliferation of hFDPCs equals to or larger than 8%)”.

Regarding `O=C(O)CN1CCC(NC(=O)C2CCCc3c2[nH]c2ccccc32)CC1` (stereo not shown) [IV-5, 2-[4-(2,3,4,9-tetrahydro-1H-carbazole-1-carbonylamino)piperidin-1-yl]acetic acid], the “Activity (Percent Increase Proliferation of hFDPCs (%))” value is “D (increased proliferation of hFDPCs equals to or larger than 8%)”.

As to `CCCC(=O)NCc1ccc(OC)cc1` [II-2, N-[(4-methoxyphenyl)methyl]butanamide], the “Activity (Percent Increase Proliferation of hFDPCs (%))” value is “B (increased proliferation of hFDPCs equals to or larger than 1% and less than 4%)”.

On to `COc1ccc(CN2CCN(C(=O)Cn3ccnc3)CC2)cc1` [VII-33, 2-imidazol-1-yl-1-[4-[(4-methoxyphenyl)methyl]piperazin-1-yl]ethanone], for which the “Activity (Percent Increase Proliferation of hFDPCs (%))” value is “C (increased proliferation of hFDPCs equals to or larger than 4% and less than 8%)”.

In the case of `Cc1ccc(-c2nnc(SCC(=O)N3CCCC3)n2N)cc1` [I-3, 2-[[4-amino-5-(4-methylphenyl)-1,2,4-triazol-3-yl]sulfanyl]-1-pyrrolidin-1-ylethanone], the “Activity (Percent Increase Proliferation of hFDPCs (%))” value is “C (increased proliferation of hFDPCs equals to or larger than 4% and less than 8%)”.

Turning to `Cn1nnnc1SCC(=O)N1CCCCC1` [VII-37, 2-(1-methyltetrazol-5-yl)sulfanyl-1-piperidin-1-ylethanone], the “Activity (Percent Increase Proliferation of hFDPCs (%))” value is “C (increased proliferation of hFDPCs equals to or larger than 4% and less than 8%)”.

As to `CC(N)c1nnnn1C` (stereo not shown) [VII-15, 1-(1-methyltetrazol-5-yl)ethanamine], the “Activity (Percent Increase Proliferation of hFDPCs (%))” value was “D (increased proliferation of hFDPCs equals to or larger than 8%)”.

With `COc1ccc(C(=O)NC(C(=O)NC(C)Cn2ccnc2)C(C)C)cc1` (stereo not shown) [III-5, N-[1-(1-imidazol-1-ylpropan-2-ylamino)-3-methyl-1-oxobutan-2-yl]-4-methoxybenzamide], the “Activity (Percent Increase Proliferation of hFDPCs (%))” value was “B (increased proliferation of hFDPCs equals to or larger than 1% and less than 4%)”.

For `CCn1c(SCC(=O)N2CCCCCC2)nnc1-c1ccncc1` [I-5, 1-(azepan-1-yl)-2-[(4-ethyl-5-pyridin-4-yl-1,2,4-triazol-3-yl)sulfanyl]ethanone], the “Activity (Percent Increase Proliferation of hFDPCs (%))” value was “C (increased proliferation of hFDPCs equals to or larger than 4% and less than 8%)”.

As for `CC(C)n1cnnc1` [VII-27, 4-propan-2-yl-1,2,4-triazole], the “Activity (Percent Increase Proliferation of hFDPCs (%))” value is on record as “D (increased proliferation of hFDPCs equals to or larger than 8%)”.

As for `COc1ccc(CNC(=O)C(=O)NCCCn2ccnc2)cc1` [III-2, N-(3-imidazol-1-ylpropyl)-N′-[(4-methoxyphenyl)methyl]oxamide], the “Activity (Percent Increase Proliferation of hFDPCs (%))” value was “D (increased proliferation of hFDPCs equals to or larger than 8%)”.

Regarding `CN(C)c1ccccc1CN1CCCCC1C(=O)O` (stereo not shown) [VII-16, 1-[[2-(dimethylamino)phenyl]methyl]piperidine-2-carboxylic acid], the “Activity (Percent Increase Proliferation of hFDPCs (%))” value is reported as “D (increased proliferation of hFDPCs equals to or larger than 8%)”.

Turning to `CN(C)CCn1c(=O)[nH]c2ccccc2c1=O` [V-3, 3-[2-(dimethylamino)ethyl]-1H-quinazoline-2,4-dione], the “Activity (Percent Increase Proliferation of hFDPCs (%))” value was “A (increased proliferation of hFDPCs of less than 1%)”.

Source of the values: patent US12564547B2, “Compositions, formulations, and methods for skin treatment” (Oddity Labs, LLC, priority 2022, dated 2026).
